Data taken from patent US8609650B2, “Bridged bicyclic aryl and bridged bicyclic heteroaryl substituted triazoles useful as Axl inhibitors” (Rigel Pharmaceuticals, Inc., priority 2006, dated 2013).

Each molecule was assayed against T1, Axl (Homo sapiens, UniProt P30530) (assay: Phospho-Akt In-Cell Western Assay (ability to inhibit Axl activity)). Conditions: Hela cells, stimulated by Axl-antibody cross-linking, phospho-Akt chemiluminescence normalized to relative cell number.
T1 construct: endogenous in cells; host or cells: HeLa cells
T1 sequence (P30530 26-894): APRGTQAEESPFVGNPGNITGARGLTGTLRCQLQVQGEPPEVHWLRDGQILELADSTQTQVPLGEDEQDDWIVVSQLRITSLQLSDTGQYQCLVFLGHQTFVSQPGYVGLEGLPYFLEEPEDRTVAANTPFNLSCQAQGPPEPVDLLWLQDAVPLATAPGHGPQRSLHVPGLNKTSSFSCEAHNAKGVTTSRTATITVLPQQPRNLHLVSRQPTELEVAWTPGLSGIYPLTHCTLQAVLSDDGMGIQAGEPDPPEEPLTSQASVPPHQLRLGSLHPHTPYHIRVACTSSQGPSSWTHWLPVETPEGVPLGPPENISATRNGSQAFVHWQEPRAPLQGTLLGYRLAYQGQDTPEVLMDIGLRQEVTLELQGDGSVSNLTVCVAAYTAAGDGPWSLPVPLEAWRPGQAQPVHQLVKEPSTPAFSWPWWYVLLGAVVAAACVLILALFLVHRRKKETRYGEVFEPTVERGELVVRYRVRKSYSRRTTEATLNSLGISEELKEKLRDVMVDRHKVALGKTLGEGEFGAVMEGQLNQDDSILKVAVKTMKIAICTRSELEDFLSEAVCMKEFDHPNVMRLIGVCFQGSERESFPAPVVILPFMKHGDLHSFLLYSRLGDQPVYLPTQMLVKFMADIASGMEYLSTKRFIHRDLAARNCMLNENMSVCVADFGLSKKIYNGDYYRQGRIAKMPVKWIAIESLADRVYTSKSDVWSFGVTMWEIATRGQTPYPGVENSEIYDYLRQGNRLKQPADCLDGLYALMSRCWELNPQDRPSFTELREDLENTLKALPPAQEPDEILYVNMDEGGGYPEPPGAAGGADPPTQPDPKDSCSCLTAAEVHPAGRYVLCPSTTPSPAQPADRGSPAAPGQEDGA
Type: cell-based
Protocol: The compounds of the invention were tested in the following assay for their ability to inhibit Axl activity.
Phospho-Akt In-Cell Western Assay
• Cell culture plate: 96 well assay plate (Corning 3610), white, clear bottom, tissue-culture treated. • Cells: Hela cells. • Starvation medium: For Axl stimulation: 0.5% FCS (fetal calf serum) in DMEM, plus Axl/Fc (extracellular domain of AXL fused to immunoglobulin Fc region) (R&D, 154-AL) 500 ng/mL. • For EGF (epidermal growth factor) stimulation: 0.5% FCS in DMEM (Dulbecco's modified Eagles medium). • Poly-L-Lysine 0.01% solution (the working solution): 10 μg/ml, dilute In PBS (phosphate buffered saline). • Axl antibody cross-linking: • 1st: Mouse anti-Axl (R&D, MAB154). • 2nd: Biotin-SP-conjugated AffiniPure goat anti-mouse IgG (H+L) (Jackson ImmunoResearch #115-065-003). • Fixing buffer: 4% formaldehyde in PBS. • Wash buffer: 0.1% TritonX-100 in PBS. • Quenching buffer: 3% H2O2, 0.1% Azide in wash buffer, Azide and hydrogen peroxide (H2O2) are added fresh. • Blocking buffer: 5% BSA in TBST (tris buffered saline plus 0.1% Tween 20). • Primary antibody: Rabbit anti-human Phospho-Akt antibody (Cell Signaling 9271): 1×250 diluted in blocking buffer. • Secondary antibody: HRP (horse radish peroxidase)-conjugated Goat anti-Rabbit secondary, stock solution: Jackson ImmunoResearch (Goat anti-Rabbit HRP, #111-035-144) 1:1 diluted in glycerol, store at −20° C. The working solution: 1×2000 dilution of stock in blocking buffer. • Chemiluminescent working solution (Pierce, 37030): SuperSignal ELISA (enzyme linked immunosorbant assay) Pico Chemiluminescent substrate. • Crystal Violet solution: Stock: 2.5% Crystal violet in methanol, filtered and kept at ambient temperature. The working solution: dilute the stock 1:20 with PBS immediately before use. • 10% SDS: working solution: 5% SDS (sodium dodecylsulfate), diluted in PBS Methods: Day 1:
A 96 well TC (tissue culture treated) plate was coated with 10 μg/mL poly-L-Lysine at 37° C. for 30 min, washed twice with PBS, and air-dried for 5 minutes before cells were added. Hela cells were seeded at 10,000 cells/well and the cells were starved in 100 μL starvation medium containing Axl/Fc for 24 hrs.
The cells were pre-treated with test compounds by adding 100 μL of 2× test compound to the starvation medium on the cells. The cells were incubated at 37° C. for 1 hr before stimulation.
The cells were stimulated by Axl-antibody cross-linking as follows: A 5×1st/2nd Axl antibody mixture was made (37.5 μg/mL 1st/100 μg/mL 2nd) in starvation medium and nutated at 4° C. with thorough mixing for 1-2 hours for clustering. The resulting mix was warmed to 37° C. 50 μL of 5× Axl 1st/2nd of antibody cluster was added to the cells and the cells were incubated at 37° C. for 5 min.
After 5 minutes stimulation, the plate was flicked to remove medium and the plate was tapped onto paper towels. Formaldehyde (4.0% in PBS, 100 μL) was added to fix the cells and the cells were incubated at ambient temperature for 20 min without shaking.
The cells were washed with a plate washer buffer to remove the formaldehyde solution. The plate was flicked to removed excess wash buffer and tapped onto paper towels. Quenching buffer (100 μL) was added to each well and the cells were incubated at ambient temperature for 20 minutes without shaking.
The cells were washed with a plate washer buffer to remove the quenching buffer. Blocking buffer (100 μL) was added and the cells were incubated at ambient temperature for at least an hour with gentle shaking.
The cells were washed with a plate washer buffer and diluted primary antibody (50 μL) was added to each well (blocking buffer was added to the negative control wells instead). The plates were incubated overnight at 4° C. with gentle shaking.
The wash buffer was removed, diluted secondary antibody (100 μL) was added, and the cells were incubated at ambient temperature for 1 hour with gentle shaking. […]
Work on `CN1CCN(C2CCN(c3ccc(Nc4nc(N)n(-c5cc(-c6ccccc6)c6c(n5)C5CCN6CC5)n4)cc3F)CC2)CC1` [Compound 41, 1-(1,4-ethano-8-phenyl-1,2,3,4-tetrahydro-1,5-naphthyridin-6-yl)-N^3-(3-fluoro-4-(4-(4-methylpiperazin-1-yl)piperidin-1-yl)phenyl)-1H-1,2,4-triazole-3,5-diamine] yielded an IC50 of under 1000 nM. `CN1CCN(c2ccc(Nc3nc(N)n(-c4nnc(-c5ccccc5)c5c4C4CCC5C4)n3)cc2)CC1` (stereo not shown) [Compound 42, 1-(5,8-methano-1-phenyl-5,6,7,8-tetrahydrophthalazine-4-yl)-N^3-(4-(4-methylpiperazin-1-yl)phenyl)-1H-1,2,4-triazole-3,5-diamine] was tested, and the IC50 was under 1000 nM. For `Nc1nc(Nc2ccc(N3CCC(N4CCCC4)CC3)c(F)c2)nn1-c1cc(-c2ccccc2)c2c(n1)C1CCC2C1` (stereo not shown) [Compound 43, 1-(5,8-methano-4-phenyl-5,6,7,8-tetrahydroquinoline-2-yl)-N^3-(3-fluoro-4-(4-(pyrrolidin-1-yl)piperidin-1-yl)phenyl)-1H-1,2,4-triazole-3,5-diamine], the IC50 was under 1000 nM. For `Nc1nc(Nc2ccc(N3CCN(C4CCCCC4)CC3)c(F)c2)nn1-c1cc(-c2ccccc2)c2c(n1)C1CCC2C1` (stereo not shown) [Compound 44, 1-(5,8-methano-4-phenyl-5,6,7,8-tetrahydroquinoline-2-yl)-N^3-(3-fluoro-4-(4-cyclohexylpiperazin-1-yl)phenyl)-1H-1,2,4-triazole-3,5-diamine], the IC50 was 1000 to 10000 nM. For `CN1CCN(c2ccc(Nc3nc(N)n(-c4cc(-c5ccccc5)c5c(n4)C4CCC5C4)n3)cc2)CC1` (stereo not shown) [Compound 45, 1-(5,8-methano-4-phenyl-5,6,7,8-tetrahydroquinoline-2-yl)-N^3-(4-(4-methylpiperazin-1-yl)phenyl)-1H-1,2,4-triazole-3,5-diamine], the IC50 was under 1000 nM. `CN1CCN(C2CCN(c3ccc(Nc4nc(N)n(-c5cc(-c6cccs6)c6c(n5)C5CCC6C5)n4)cc3F)CC2)CC1` (stereo not shown) [Compound 47, 1-(5,8-methano-4-thiophen-2-yl-5,6,7,8-tetrahydroquinoline-2-yl)-N^3-(3-fluoro-4-(4-(4-methylpiperazin-1-yl)piperidin-1-yl)phenyl)-1H-1,2,4-triazole-3,5-diamine] gave an IC50 of under 1000 nM. `Nc1nc(Nc2ccc3c(c2)CCC(N2CCCC2)CC3)nn1-c1cc(-c2cccs2)c2c(n1)C1CCC2C1` (stereo not shown) [Compound 48, 1-(5,8-methano-4-thiophen-2-yl-5,6,7,8-tetrahydroquinoline-2-yl)-N^3-(7-pyrrolidin-1-yl-6,7,8,9-tetrahydro-5H-benzo[7]annulene-3-yl)-1H-1,2,4-triazole-3,5-diamine] showed an IC50 of under 1000 nM. In the case of `Nc1nc(Nc2ccc3c(c2)CCC(N2CCCC2)CC3)nn1-c1cc(-c2ccccc2)c2c(n1)C1CCC2C1` (stereo not shown) [Compound 49, 1-(5,8-methano-4-phenyl-5,6,7,8-tetrahydroquinoline-2-yl)-N^3-(7-pyrrolidin-1-yl-6,7,8,9-tetrahydro-5H-benzo[7]annulene-3-yl)-1H-1,2,4-triazole-3,5-diamine], the IC50 is reported as under 1000 nM. `Cc1cc(Nc2nc(N)n(-c3cc(-c4ccccc4)c4c(n3)C3CCN4CC3)n2)cnc1N1CCN(CC2CC2)CC1` [Compound 50, 1-(1,4-ethano-8-phenyl-1,2,3,4-tetrahydro-1,5-naphthyridin-6-yl)-N^3-(3-methyl-2-(4-cyclopropylmethylpiperazin-1-yl)pyridine-5-yl)-1H-1,2,4-triazole-3,5-diamine] gave an IC50 of under 1000 nM. With `Cc1cc(Nc2nc(N)n(-c3cc(-c4ccccc4)c4c(n3)C3CCC4C3)n2)cnc1N1CCN(CC2CC2)CC1` (stereo not shown) [Compound 51, 1-(5,8-methano-4-phenyl-5,6,7,8-tetrahydroquinoline-2-yl)-N^3-(3-methyl-2-(4-cyclopropylmethylpiperazin-1-yl)pyridine-5-yl)-1H-1,2,4-triazole-3,5-diamine] the IC50 was 1000 to 10000 nM. Molecule `Cc1cc(Nc2nc(N)n(-c3cc(-c4cccs4)c4c(n3)C3CCC4C3)n2)cnc1N1CCN(CC2CC2)CC1` (stereo not shown) [Compound 52, 1-(5,8-methano-4-thiophen-2-yl-5,6,7,8-tetrahydroquinoline-2-yl)-N^3-(3-methyl-2-(4-cyclopropylmethylpiperazin-1-yl)pyridine-5-yl)-1H-1,2,4-triazole-3,5-diamine] has an IC50 of under 1000 nM. For `Nc1nc(Nc2ccc(N3CCC(N4CCCC4)CC3)c(F)c2)nn1-c1cc(-c2cccs2)c2c(n1)C1CCC2C1` (stereo not shown) [Compound 53, 1-(5,8-methano-4-thiophen-2-yl-5,6,7,8-tetrahydroquinoline-2-yl)-N^3-(3-fluoro-4-(4-(pyrrolidin-1-yl)piperidin-1-yl)phenyl)-1H-1,2,4-triazole-3,5-diamine], the IC50 was under 1000 nM. With `CN(C)C1CCN(c2ccc(Nc3nc(N)n(-c4cc(-c5cccs5)c5c(n4)C4CCC5C4)n3)cc2F)CC1` (stereo not shown) [Compound 54, 1-(5,8-methano-4-thiophen-2-yl-5,6,7,8-tetrahydroquinoline-2-yl)-N^3-(3-fluoro-4-(4-dimethylaminopiperidin-1-yl)phenyl)-1H-1,2,4-triazole-3,5-diamine] the IC50 was under 1000 nM. `CCOC(=O)CN1CCN(c2ccc(Nc3nc(N)n(-c4cc(-c5ccccc5)c5c(n4)C4CCN5CC4)n3)cc2F)CC1` [Compound 55, 1-(1,4-ethano-8-phenyl-1,2,3,4-tetrahydro-1,5-naphthyridin-6-yl)-N^3-(3-fluoro-4-(4-ethyloxycarbonylmethylpiperazin-1-yl)phenyl)-1H-1,2,4-triazole-3,5-diamine] showed an IC50 of under 1000 nM. In the case of `Nc1nc(Nc2ccc(N3CCN(CC(=O)O)CC3)c(F)c2)nn1-c1cc(-c2ccccc2)c2c(n1)C1CCN2CC1` [Compound 56, 1-(1,4-ethano-8-phenyl-1,2,3,4-tetrahydro-1,5-naphthyridin-6-yl)-N^3-(3-fluoro-4-(4-carboxymethylpiperazin-1-yl)phenyl)-1H-1,2,4-triazole-3,5-diamine], the IC50 is reported as under 1000 nM. In the case of `Nc1nc(Nc2ccc(N3CCC(N4CCCC4)CC3)c(F)c2)nn1-c1cc(-c2ccc(C(F)(F)F)cc2)c2c(n1)C1CCN2CC1` [Compound 57, 1-(1,4-ethano-8-(4-trifluoromethylphenyl)-1,2,3,4-tetrahydro-1,5-naphthyridin-6-yl)-N^3-(3-fluoro-4-(4-(pyrrolidin-1-yl)piperidin-1-yl)phenyl)-1H-1,2,4-triazole-3,5-diamine], the IC50 is reported as under 1000 nM.
